Patent publication US20260285853A1, “COMPOUNDS AND METHODS FOR MODULATING SPLICING” (REMIX THERAPEUTICS INC., priority 2023, published 2026)

What was measured:
Format in all cases: cell-based
[1] = tested on: HTT mRNA; experiment: Splicing RT-qPCR assay (THP), Table 2A; conditions: Table 2A (THP); for AC50: AJ mRNA increase, read-out: HTT AJ (increase in alternative junction mRNA, AC50); for IC50: CJ mRNA decrease, read-out: HTT CJ (decrease in canonical junction mRNA, IC50)
[2] = tested on: MYB mRNA; experiment: Splicing RT-qPCR assay (THP), Table 2A; conditions: Table 2A (THP); for AC50: AJ mRNA increase, read-out: MYB AJ (increase in alternative junction mRNA, AC50); for IC50: CJ mRNA decrease, read-out: MYB CJ (decrease in canonical junction mRNA, IC50)
[3] = tested on: HTT mRNA; experiment: Gene panel canonical junction qPCR assay, decrease in CJ mRNA, Table 3; conditions: decrease in canonical junction (CJ) mRNA, gene panel qPCR, Table 3
Outline: (§1)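 A673 cells were plated, left to adhere for 24 h, then dosed; K562 cells were plated in 96- or 384-well format and dosed directly. Both were incubated 24 h at 37 °C with an 11-point 3-fold series (top 10 uM final). Canonical junction mRNA was then read by cDNA synthesis and qPCR.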

[4] = tested on: MYB mRNA; experiment: as above; conditions: decrease in canonical junction (CJ) mRNA, gene panel qPCR, Table 3
Outline: as §1

[5] = tested on: SMN2 mRNA; experiment: as above; conditions: decrease in canonical junction (CJ) mRNA, gene panel qPCR, Table 3
Outline: as §1

[6] = tested on: SH-SY5Y (human neuroblastoma) cells; experiment: Cell viability, Cell Titer Glo 2.0 assay; conditions: read-out: Viability SHSY5Y.3 GI50
Outline: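 SH-SY5Y neuroblastoma cells are exposed to test compounds for 72 hours at 37 °C and 5% CO2, with final DMSO held at 0.1%. Cell viability is then measured with the CellTiter-Glo 2.0 assay.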

CNC1(C)CCN(c2cc(F)c(C(=O)Nc3cc(F)c4nc(C)cn4c3)c3nn(C)cc23)CC1 [Compound 179, 6-fluoro-N-(8-fluoro-2-methyl-imidazo[1,2-a]pyridin-6-yl)-2-methyl-4-[4-methyl-4-(methylamino)-1-piperidyl]indazole-7-carboxamide]
AC50 [1]: < 0.1 µM
IC50 [1]: < 0.1 µM
AC50 [2]: < 0.1 µM
IC50 [2]: < 0.1 µM
IC50 [3]: < 0.1 µM
IC50 [4]: < 0.1 µM
IC50 [5]: < 0.1 µM
GI50 [6]: < 0.1 µM

CNC1(C)CCN(c2cc(F)c(C(=O)Nc3cn4cc(C)nc4c(F)c3OC)c3nn(C)cc23)CC1 [Compound 180, 6-fluoro-N-(8-fluoro-7-methoxy-2-methyl-imidazo[1,2-a]pyridin-6-yl)-2-methyl-4-[4-methyl-4-(methylamino)-1-piperidyl]indazole-7-carboxamide]
AC50 [1]: < 0.1 µM
IC50 [1]: < 0.1 µM
AC50 [2]: < 0.1 µM
IC50 [2]: < 0.1 µM
IC50 [3]: < 0.1 µM
IC50 [4]: < 0.1 µM
IC50 [5]: < 0.1 µM
GI50 [6]: < 0.1 µM

CCNC1CCN(c2ccc(C(=O)Nc3cn4cc(C)nc(C)c4n3)c3nn(C)cc23)CC1 [Compound 181, N-(6,8-dimethylimidazo [1,2-a]pyrazin-2-yl)-4-[4-(ethylamino)-1-piperidyl]-2-methyl-indazole-7-carboxamide]
AC50 [1]: 1 to 10 µM
IC50 [1]: 1 to 10 µM
AC50 [2]: 0.1 to 1 µM
IC50 [2]: 0.1 to 1 µM
IC50 [3]: 0.1 to 1 µM
IC50 [4]: 0.1 to 1 µM
IC50 [5]: < 0.1 µM
GI50 [6]: 0.1 to 1 µM

CCNC1CCN(c2ccc(C(=O)Nc3cc(F)c4nn(C)cc4c3)c3nn(C)cc23)CC1 [Compound 182, 4-(4-(ethylamino)piperidin-1-yl)-N-(7-fluoro-2-methyl-2H-indazol-5-yl)-2-methyl-2H-indazole-7-carboxamide]
AC50 [1]: 1 to 10 µM
IC50 [1]: 1 to 10 µM
AC50 [2]: < 0.1 µM
IC50 [2]: < 0.1 µM
IC50 [3]: 1 to 10 µM
IC50 [4]: < 0.1 µM
IC50 [5]: < 0.1 µM
GI50 [6]: 0.1 to 1 µM

Cc1cn2cc(NC(=O)c3ccc(N4CCC(NC5CC5)CC4)c4cc(C)oc34)cc(F)c2n1 [Compound 185, 4-[4-(cyclopropyl-amino)-1-piperidyl]-N-(8-fluoro-2-methyl-imidazo[1,2-a]pyridin-6-yl)-2-methyl-benzofuran-7-carboxamide]
AC50 [1]: 1 to 10 µM
IC50 [1]: 1 to 10 µM
AC50 [2]: < 0.1 µM
IC50 [2]: 0.1 to 1 µM
IC50 [3]: 1 to 10 µM
IC50 [4]: 0.1 to 1 µM
IC50 [5]: < 0.1 µM
GI50 [6]: 0.1 to 1 µM

CCNC1CCN(c2ccc(C(=O)Nc3cc(C)c4nc(C)cn4n3)c3nn(C)cc23)CC1 [Compound 186, N-(2,8-dimethylimidazo [1,2-b]pyridazin-6-yl)-4-[4-(ethylamino)-1-piperidyl]-2-methyl-indazole-7-carboxamide]
AC50 [1]: 0.1 to 1 µM
IC50 [1]: 0.1 to 1 µM
AC50 [2]: 0.1 to 1 µM
IC50 [2]: 0.1 to 1 µM
IC50 [3]: 0.1 to 1 µM
IC50 [4]: 0.1 to 1 µM
IC50 [5]: 0.1 to 1 µM
GI50 [6]: 0.1 to 1 µM

Cc1cn2nc(NC(=O)c3ccc(N4CCC(NC5CC5)CC4)c4cn(C)nc34)cc(C)c2n1 [Compound 187, 4-[4-(cyclopropylamino)-1-piperidyl]-N-(2,8-dimethylimidazo-[1,2-b]pyridazin-6-yl)-2-methyl-indazole-7-carboxamide]
AC50 [1]: 0.1 to 1 µM
IC50 [1]: 0.1 to 1 µM
AC50 [2]: 0.1 to 1 µM
IC50 [2]: 0.1 to 1 µM
IC50 [3]: 0.1 to 1 µM
IC50 [4]: 0.1 to 1 µM
IC50 [5]: 0.1 to 1 µM
GI50 [6]: 0.1 to 1 µM

CCNC1CCN(c2ccc(C(=O)Nc3cc(F)c4nc(C)c(C)n4c3)c3nn(C)cc23)CC1 [Compound 188, 4-[4-(ethylamino)-1-piperidyl]-N-(8-fluoro-2,3-dimethyl-imidazo[1,2-a]pyridin-6-yl)-2-methyl-indazole-7-carboxamide]
AC50 [1]: > 10 µM
IC50 [1]: > 10 µM
AC50 [2]: > 10 µM
IC50 [2]: > 10 µM
IC50 [3]: > 10 µM
IC50 [4]: > 10 µM
IC50 [5]: > 10 µM
GI50 [6]: 1 to 10 µM

Cc1nc2c(F)cc(NC(=O)c3ccc(N4CCC(NC5CC5)CC4)c4cn(C)nc34)cn2c1C [Compound 189, 4-[4-(cyclopropylamino)-1-piperidyl]-N-(8-fluoro-2,3-dimethyl-imidazo[1,2-a]pyridin-6-yl)-2-methyl-indazole-7-carboxamide]
AC50 [1]: 0.1 to 1 µM
IC50 [1]: > 10 µM
AC50 [2]: > 10 µM
IC50 [2]: > 10 µM
IC50 [3]: > 10 µM
IC50 [4]: > 10 µM
IC50 [5]: > 10 µM
GI50 [6]: 0.1 to 1 µM

CCNC1CCN(c2ccc(C(=O)Nc3cc4cn(C)nc4cc3O)c3[nH]ccc23)CC1 [Compound 190, 4-[4-(ethylamino)-1-piperidyl]-N-(6-hydroxy-2-methyl-indazol-5-yl)-1H-indole-7-carboxamide]
AC50 [1]: > 10 µM
IC50 [1]: > 10 µM
AC50 [2]: > 10 µM
IC50 [2]: > 10 µM
IC50 [3]: > 10 µM
IC50 [4]: > 10 µM
IC50 [5]: > 10 µM
GI50 [6]: > 10 µM

Cc1cn2cc(NC(=O)c3ccc(N4CCC(NC5CC5)CC4)c4ccoc34)cc(F)c2n1 [Compound 191, 4-[4-(cyclopropylamino)-1-piperidyl]-N-(8-fluoro-2-methyl-imidazo[1,2-a]pyridin-6-yl) benzofuran-7-carboxamide]
AC50 [1]: 1 to 10 µM
IC50 [1]: 1 to 10 µM
AC50 [2]: < 0.1 µM
IC50 [2]: 0.1 to 1 µM
IC50 [3]: 1 to 10 µM
IC50 [4]: 0.1 to 1 µM
IC50 [5]: < 0.1 µM
GI50 [6]: 0.1 to 1 µM

Cc1cn2cc(NC(=O)c3ccc(C4CCC(NC5CC5)CC4)c4cn(C)nc34)cc(F)c2n1 (stereo not drawn) [Compound 192, 4-[4-(cyclopropylamino)cyclohexyl]-N-(8-fluoro-2-methyl-imidazo[1,2-a]pyridin-6-yl)-2-methyl-indazole-7-carboxamide]
AC50 [1]: 1 to 10 µM
IC50 [1]: 1 to 10 µM
AC50 [2]: 0.1 to 1 µM
IC50 [2]: 0.1 to 1 µM
IC50 [3]: 0.1 to 1 µM
IC50 [4]: 0.1 to 1 µM
IC50 [5]: < 0.1 µM
GI50 [6]: 0.1 to 1 µM

CCNC1CCN(c2ccc(C(=O)Nc3cc(F)c4nc(CO)cn4c3)c3nn(C)cc23)CC1 [Compound 193, 4-[4-(ethylamino)-1-piperidyl]-N-[8-fluoro-2-(hydroxymethyl)imidazo[1,2-a]pyridin-6-yl]-2-methyl-indazole-7-carboxamide]
AC50 [1]: 1 to 10 µM
IC50 [1]: 1 to 10 µM
AC50 [2]: 0.1 to 1 µM
IC50 [2]: 0.1 to 1 µM
IC50 [3]: > 10 µM
IC50 [4]: 0.1 to 1 µM
IC50 [5]: < 0.1 µM
GI50 [6]: 1 to 10 µM

Cc1cn2cc(NC(=O)c3ccc(C4CNCCO4)c4[nH]cnc34)cc(F)c2n1 (stereo not drawn) [Compound 194, N-(8-fluoro-2-methyl-imidazo[1,2-a]pyridin-6-yl)-7-morpholin-2-yl-1H-benzimidazole-4-carboxamide]
AC50 [1]: > 10 µM
IC50 [1]: 1 to 10 µM
AC50 [2]: 0.1 to 1 µM
IC50 [2]: 0.1 to 1 µM
IC50 [3]: 1 to 10 µM
IC50 [4]: 0.1 to 1 µM
IC50 [5]: < 0.1 µM
GI50 [6]: 1 to 10 µM

CCNC1CCN(c2cc(F)c(C(=O)Nc3cc(F)c4nc(C)cn4c3)c3ccoc23)CC1 [Compound 195, 7-[4-(ethylamino)-1-piperidyl]-5-fluoro-N-(8-fluoro-2-methylimidazo[1,2-a]pyridin-6-yl)-benzofuran-4-carboxamide]
AC50 [1]: > 10 µM
IC50 [1]: > 10 µM
AC50 [2]: > 10 µM
IC50 [2]: > 10 µM
IC50 [3]: > 10 µM
IC50 [4]: > 10 µM
IC50 [5]: 1 to 10 µM
GI50 [6]: 1 to 10 µM

CCNC1CCN(c2ccc(C(=O)Nc3cc(F)c4nc(C)cn4c3)c3nn(C)nc23)CC1 [Compound 196, 7-[4-(ethylamino)piperidin-1-yl]-N-(8-fluoro-2-methyl-imidazo[1,2-a]pyridin-6-yl)-2-methyl-1,2,3-benzotriazole-4-carboxamide]
AC50 [1]: 0.1 to 1 µM
IC50 [1]: 0.1 to 1 µM
AC50 [2]: 0.1 to 1 µM
IC50 [2]: 0.1 to 1 µM
IC50 [3]: 0.1 to 1 µM
IC50 [4]: 0.1 to 1 µM
IC50 [5]: < 0.1 µM
GI50 [6]: 1 to 10 µM

CNC1(C)CCN(c2ccc(C(=O)Nc3cn4cc(C)nc4c(OC)n3)c3nn(C)cc23)CC1 [Compound 197, N-(8-methoxy-2-methylimidazo[1,2-a]pyrazin-6-yl)-2-methyl-4-(4-methyl-4-(methylamino)piperidin-1-yl)-2H-indazole-7-carboxamide]
AC50 [1]: < 0.1 µM
IC50 [1]: < 0.1 µM
AC50 [2]: < 0.1 µM
IC50 [2]: < 0.1 µM
IC50 [3]: < 0.1 µM
IC50 [4]: < 0.1 µM
IC50 [5]: < 0.1 µM
GI50 [6]: < 0.1 µM

CCNC1CCN(c2ccc(C(=O)Nc3cc(F)c4nc(C)cn4c3)c3c2nnn3C)CC1 [Compound 198, 4-(4-(ethylamino)piperidin-1-yl)-N-(8-fluoro-2-methylimidazo[1,2-a]pyridin-6-yl)-1-methyl-1H-benzo[d][1,2,3]triazole-7-carboxamide 2,2,2-trifluoroacetate]
AC50 [1]: > 10 µM
IC50 [1]: > 10 µM
AC50 [2]: > 10 µM
IC50 [2]: > 10 µM
IC50 [3]: > 10 µM
IC50 [4]: > 10 µM
IC50 [5]: > 10 µM
GI50 [6]: > 10 µM
